Assays:
rice = assay: Test B flood test rice; type: in vivo, Oryza sativa
Method in brief: (§1)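 Flood test on plants grown to the 2-leaf stage; treated plants kept in greenhouse twelve to sixteen days, then visually rated against controls on a 0 (no effect) to 10 (complete control) scale.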

soybean = assay: Test B pre/postemergence soybean; type: in vivo, Glycine max; conditions: for Plant response rating, Soybean: scale of 0 to 10 where 0 is no effect and 10 is complete control
Method in brief: (§2)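 Response is a visual 0-to-10 score relative to untreated plants, where 0 means no effect and 10 means complete control, taken twelve to sixteen days after application. Treatments went onto soil at planting and onto foliage of 1- to 4-leaf plants, using a surfactant-containing non-phytotoxic solvent.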

smallflower flatsedge = assay: Test B flood test smallflower flatsedge; type: in vivo, Cyperus difformis
Method in brief: as §1

bamyardgrass = assay: Test B flood test barnyardgrass; type: in vivo, Echinochloa crus-galli
Method in brief: as §1

sugar beet = assay: Test B pre/postemergence sugar beet; type: in vivo, Beta vulgaris; conditions: for Plant response rating, Sugarbeets: scale of 0 to 10 where 0 is no effect and 10 is complete control
Method in brief: as §2

purple nutsedge = assay: Test B pre/postemergence purple nutsedge; type: in vivo, Cyperus rotundus; conditions: for Plant response rating, Nutsedge: scale of 0 to 10 where 0 is no effect and 10 is complete control
Method in brief: as §2

morningglory = assay: Test B pre/postemergence morningglory; type: in vivo, Ipomoea hederacea; conditions: for Plant response rating, Morningglory: scale of 0 to 10 where 0 is no effect and 10 is complete control
Method in brief: as §2

pigweed = assay: Test B pre/postemergence pigweed; type: in vivo, Amaranthus retroflexus; conditions: for Plant response rating, Redroot pigweed: scale of 0 to 10 where 0 is no effect and 10 is complete control
Method in brief: as §2

duck salad = assay: Test B flood test duck salad; type: in vivo, Heteranthera limosa
Method in brief: as §1

velvetleaf = assay: Test B pre/postemergence velvetleaf; type: in vivo, Abutilon theophrasti; conditions: for Plant response rating, Velvetleaf: scale of 0 to 10 where 0 is no effect and 10 is complete control
Method in brief: as §2

giant foxtail = assay: Test B pre/postemergence giant foxtail; type: in vivo, Setaria faberii
Method in brief: as §2

blackgrass = assay: Test B pre/postemergence blackgrass; type: in vivo, Alopecurus myosuroides
Method in brief: as §2

wild oat = assay: Test B pre/postemergence wild oat; type: in vivo, Avena fatua; conditions: for Plant response rating, Wild oats: scale of 0 to 10 where 0 is no effect and 10 is complete control
Method in brief: as §2

crabgrass = assay: Test B pre/postemergence crabgrass; type: in vivo, Digitaria sanguinalis
Method in brief: as §2

corn = assay: Test B pre/postemergence corn; type: in vivo, Zea mays
Method in brief: as §2

wheat = assay: Test B pre/postemergence wheat; type: in vivo, Triticum aestivum; conditions: for Plant response rating, Wheat: scale of 0 to 10 where 0 is no effect and 10 is complete control
Method in brief: as §2

cocklebur = assay: Test B pre/postemergence cocklebur; type: in vivo, Xanthium strumarium
Method in brief: as §2

rape = assay: Test B pre/postemergence rape; type: in vivo, Brassica napus; conditions: for Plant response rating, Rape: scale of 0 to 10 where 0 is no effect and 10 is complete control
Method in brief: as §2

surinam grass = assay: Test B pre/postemergence surinam grass; type: in vivo, Brachiaria decumbens
Method in brief: as §2

[1] = Rate 62 g/ha, flood test species, Pre-emergence, visual evaluation after twelve to sixteen days
[2] = Rate 125 g/ha, under heading Pre-emergence, flood test species, visual evaluation after twelve to sixteen days
[3] = Rate 250 g/ha, Pre-emergence (flood test species), scale 0 to 10, 0 is no effect, 10 is complete control
[4] = Rate 500 g/ha, Pre-emergence, flood test species, scale 0 to 10 (0 no effect, 10 complete control)
[5] = Postemergence, Rate 250 g/ha, scale 0 to 10
[6] = Preemergence, Rate 250 g/ha, scale 0 to 10, 0 is no effect, 10 is complete control
[7] = Rate 62 g/ha, Postemergence, scale 0 to 10 (0 no effect, 10 complete control)
[8] = Rate 125 g/ha, Postemergence, scale 0 to 10, 0 is no effect, 10 is complete control
[9] = Preemergence, Rate 500 g/ha, scale 0 to 10, 0 is no effect, 10 is complete control
[10] = Postemergence, Rate 500 g/ha, scale of 0 to 10 where 0 is no effect and 10 is complete control
[11] = Preemergence, Rate 62 g/ha, scale of 0 to 10 where 0 is no effect and 10 is complete control
[12] = Preemergence, Rate 125 g/ha, scale of 0 to 10 where 0 is no effect and 10 is complete control

CCOC(=O)CC(C(=O)OCC)n1c(=O)on(C(=O)N(c2ccc(F)cc2F)C(C)C)c1=O (centres unmarked) [Compound 465]
Plant response rating, Rice (0 to 10 scale, 0 is no effect, 10 is complete control) (rice; [1]): 0 | Rice plant response rating (0 to 10 scale, 0 is no effect, 10 is complete control) (rice; [2]): 0 | Rice plant response rating (rice; [3]): 0 | Rice plant response rating (rice; [4]): 0 | Soybean plant response rating (soybean; [5]): 1 | Plant response rating, Soybean (soybean; Preemergence, Rate 62 g/ha): 0 | Plant response rating, Soybean (soybean; Preemergence, Rate 125 g/ha): 0 | Soybean plant response rating (soybean; [6]): 7 | Soybean plant response rating (soybean; [7]): 1 | Soybean plant response rating (soybean; [8]): 1 | Plant response rating, S. Flatsedge (0 to 10 scale, 0 is no effect, 10 is complete control) (smallflower flatsedge; [1]): 0 | S. Flatsedge plant response rating (0 to 10 scale, 0 is no effect, 10 is complete control) (smallflower flatsedge; [2]): 0 | S. Flatsedge plant response rating (smallflower flatsedge; [3]): 0 | S. Flatsedge plant response rating (smallflower flatsedge; [4]): 0 | Plant response rating, Barnyardgrass (0 to 10 scale, 0 is no effect, 10 is complete control) (bamyardgrass; [1]): 0 | Barnyardgrass plant response rating (0 to 10 scale, 0 is no effect, 10 is complete control) (bamyardgrass; [2]): 0 | Barnyardgrass plant response rating (bamyardgrass; [3]): 0 | Barnyardgrass plant response rating (bamyardgrass; [4]): 0 | Sugarbeets plant response rating (sugar beet; [5]): 0 | Plant response rating, Sugarbeets (sugar beet; Preemergence, Rate 62 g/ha): 0 | Plant response rating, Sugarbeets (sugar beet; Preemergence, Rate 125 g/ha): 2 | Sugarbeets plant response rating (sugar beet; [6]): 3 | Sugarbeets plant response rating (sugar beet; [9]): 5 | Sugarbeets plant response rating (sugar beet; [7]): 0 | Sugarbeets plant response rating (sugar beet; [8]): 0 | Nutsedge plant response rating (purple nutsedge; [5]): 0 | Plant response rating, Nutsedge (purple nutsedge; Preemergence, Rate 62 g/ha): 0 | Plant response rating, Nutsedge (purple nutsedge; Preemergence, Rate 125 g/ha): 0 | Nutsedge plant response rating (purple nutsedge; [6]): 0 | Nutsedge plant response rating (purple nutsedge; [9]): 0 | Nutsedge plant response rating (purple nutsedge; [7]): 0 | Nutsedge plant response rating (purple nutsedge; [8]): 0 | Morningglory plant response rating (morningglory; [5]): 2 | Plant response rating, Morningglory (morningglory; Preemergence, Rate 62 g/ha): 0 | Plant response rating, Morningglory (morningglory; Preemergence, Rate 125 g/ha): 0 | Morningglory plant response rating (morningglory; [6]): 0 | Morningglory plant response rating (morningglory; [9]): 0 | Morningglory plant response rating (morningglory; [7]): 0 | Morningglory plant response rating (morningglory; [8]): 1 | Redroot pigweed plant response rating (pigweed; [5]): 0 | Plant response rating, Redroot pigweed (pigweed; Preemergence, Rate 62 g/ha): 3 | Plant response rating, Redroot pigweed (pigweed; Preemergence, Rate 125 g/ha): 9 | Redroot pigweed plant response rating (pigweed; [6]): 9 | Redroot pigweed plant response rating (pigweed; [9]): 10 | Redroot pigweed plant response rating (pigweed; [7]): 0 | Redroot pigweed plant response rating (pigweed; [8]): 0 | Plant response rating, Ducksalad (0 to 10 scale, 0 is no effect, 10 is complete control) (duck salad; [1]): 0 | Ducksalad plant response rating (0 to 10 scale, 0 is no effect, 10 is complete control) (duck salad; [2]): 0 | Ducksalad plant response rating (duck salad; [3]): 0 | Ducksalad plant response rating (duck salad; [4]): 0 | Velvetleaf plant response rating (velvetleaf; [5]): 3 | Plant response rating, Velvetleaf (velvetleaf; Preemergence, Rate 62 g/ha): 0 | Plant response rating, Velvetleaf (velvetleaf; Preemergence, Rate 125 g/ha): 3 | Velvetleaf plant response rating (velvetleaf; [6]): 7 | Velvetleaf plant response rating (velvetleaf; [9]): 8 | Velvetleaf plant response rating (velvetleaf; [7]): 0 | Velvetleaf plant response rating (velvetleaf; [8]): 0 | Giant foxtail plant response rating (giant foxtail; [5]): 5 | Giant foxtail plant response rating (giant foxtail; [10]): 9 | Plant response rating, Giant foxtail (giant foxtail; [11]): 7 | Plant response rating, Giant foxtail (giant foxtail; [12]): 10 | Giant foxtail plant response rating (giant foxtail; [6]): 10 | Giant foxtail plant response rating (giant foxtail; [9]): 10 | Giant foxtail plant response rating (giant foxtail; [7]): 2 | Giant foxtail plant response rating (giant foxtail; [8]): 5 | Blackgrass plant response rating (blackgrass; [5]): 6 | Blackgrass plant response rating (blackgrass; [10]): 8 | Plant response rating, Blackgrass (blackgrass; [11]): 2 | Plant response rating, Blackgrass (blackgrass; [12]): 3 | Blackgrass plant response rating (blackgrass; [6]): 6 | Blackgrass plant response rating (blackgrass; [9]): 10 | Blackgrass plant response rating (blackgrass; [7]): 0 | Blackgrass plant response rating (blackgrass; [8]): 2 | Wild oats plant response rating (wild oat; [5]): 0 | Plant response rating, Wild oats (wild oat; Preemergence, Rate 62 g/ha): 0 | Plant response rating, Wild oats (wild oat; Preemergence, Rate 125 g/ha): 0 | Wild oats plant response rating (wild oat; [6]): 2 | Wild oats plant response rating (wild oat; [9]): 3 | Wild oats plant response rating (wild oat; [7]): 0 | Wild oats plant response rating (wild oat; [8]): 0 | Crabgrass plant response rating (crabgrass; [5]): 5 | Crabgrass plant response rating (crabgrass; [10]): 8 | Plant response rating, Crabgrass (crabgrass; [11]): 2 | Crabgrass plant response rating (crabgrass; [6]): 4 | Crabgrass plant response rating (crabgrass; [9]): 10 | Crabgrass plant response rating (crabgrass; [7]): 1 | Crabgrass plant response rating (crabgrass; [8]): 1 | Corn plant response rating (corn; [5]): 0 | Corn plant response rating (corn; [10]): 2 | Plant response rating, Corn (corn; [11]): 0 | Plant response rating, Corn (corn; [12]): 0 | Corn plant response rating (corn; [6]): 0 | Corn plant response rating (corn; [9]): 2 | Corn plant response rating (corn; [7]): 0 | Corn plant response rating (corn; [8]): 0 | Wheat plant response rating (wheat; [5]): 0 | Plant response rating, Wheat (wheat; Preemergence, Rate 62 g/ha): 0 | Plant response rating, Wheat (wheat; Preemergence, Rate 125 g/ha): 0 | Wheat plant response rating (wheat; [6]): 0 | Wheat plant response rating (wheat; [9]): 0 | Wheat plant response rating (wheat; [7]): 0 | Wheat plant response rating (wheat; [8]): 0 | Cocklebur plant response rating (cocklebur; [5]): 0 | Cocklebur plant response rating (cocklebur; [10]): 0 | Plant response rating, Cocklebur (cocklebur; [11]): 0 | Plant response rating, Cocklebur (cocklebur; [12]): 0 | Cocklebur plant response rating (cocklebur; [6]): 0 | Cocklebur plant response rating (cocklebur; [9]): 0 | Cocklebur plant response rating (cocklebur; [7]): 0 | Cocklebur plant response rating (cocklebur; [8]): 0 | Rape plant response rating (rape; [5]): 0 | Plant response rating, Rape (rape; Preemergence, Rate 62 g/ha): 0 | Plant response rating, Rape (rape; Preemergence, Rate 125 g/ha): 2 | Rape plant response rating (rape; [6]): 2 | Rape plant response rating (rape; [9]): 5 | Rape plant response rating (rape; [7]): 0 | Rape plant response rating (rape; [8]): 0 | B. signalgrass plant response rating (surinam grass; Postemergence, Rate 250 g/ha, scale 0 to 10, 0 no effect, 10 complete control): 0 | B. signalgrass plant response rating (surinam grass; [10]): 0 | Plant response rating, B. signalgrass (surinam grass; [11]): 0 | Plant response rating, B. signalgrass (surinam grass; [12]): 2 | B. signalgrass plant response rating (surinam grass; [6]): 3 | B. signalgrass plant response rating (surinam grass; [9]): 5 | B. signalgrass plant response rating (surinam grass; [7]): 0 | B. signalgrass plant response rating (surinam grass; [8]): 0

Source: patent publication US6737383B1, “Herbicidal oxadiazolidines” (priority 1999, dated 2004)
